Laboratory results reported in US20150328322A1, “DRUG DELIVERY VEHICLES” (priority 2012, published 2015).

Assays:
MHD capsid II = biological target: T1, MHD capsid II (Escherichia phage T7, UniProt P19726); experiment: Fluorescence (I) vs. time binding of bis-ANS to connector-free capsid; assay type: physicochemical; details: capsid II particle without connector
T1 construct: These latter capsid shells are produced during DNA packaging; made in house; host or cells: phage-infected E. coli (inferred)
Source text: For measuring the rate of loading of a compound in MLD capsid II, an alternative to AUC-BD is usually needed for reasons of efficiency of time and cost. Total fluorescence (/) has been used to determine the rate of loading for bis-ANS, because bis-ANS undergoes fluorescence enhancement when it binds to hydrophobic areas of proteins, including several internal T7 proteins (gps8, gps15, gps16)—the T7 proteins bound were identified by ultraviolet light-induced, covalent cross-linking to bis-ANS after binding. The value of I vs. time at 25° C. is plotted in FIG. 5 (adapted from Khan et al., Biophys. J. 1992, 63:1286-1292), during incubation of bis-ANS with T7 MLD capsid II and also the mature phage T7 and a T7 deletion mutant, C5-LG3. Binding to the exterior of the capsid was so rapid that it was complete before the first measurement. […] Thus, the loading rate is simply observed by measuring I vs. time and subtracting the initial signal. […] MLD capsid II-bound bis-ANS fluorescence is quenched by incubation with ethidium cation.

MLD capsid II [1] = biological target: T2, MLD capsid II (Escherichia phage T7, UniProt P03728+P19726); experiment: Diffusion-driven permeation of dyes into internal cavity of MLD capsid II; assay type: physicochemical; details: entry through the gp8 portal
T2 construct: These latter capsid shells are produced during DNA packaging
Source text: MLD Capsid II. […] Thus, bis-ANS, ethidium, and presumably other similarly sized compounds enter MLD capsid II through the gp8 portal (see FIG. 1a).

T7 MLD capsid II = biological target: T3, T7 MLD capsid II (Escherichia phage T7, UniProt P03728+P19726); details: 25° C.; FIG. 5 adapted from Khan et al. 1992; cited from earlier work
T3 construct: These latter capsid shells are produced during DNA packaging

MLD capsid II [2] = biological target: T2, MLD capsid II; experiment: Buoyant density after incubation with sodium iothalamate; assay type: physicochemical; details: 25° C.; loads, but very slowly
Source text: Assays for Loading. To assay for diffusion-driven loading of a compound in the cavity of MLD capsid II, the most direct method is to perform buoyant density equilibrium centrifugation in a non-ionic density gradient of either Metrizamide (mw=789) or the closely related compound, Nycodenz (mw=821). If a compound enters MLD capsid II, the density changes after loading. Most dyes and drugs would, if loaded, cause the density of MLD capsid II to increase. The reason is that most dyes and drugs are denser than water and a loaded dye or drug molecule replaces internal MLD capsid II water. The exceptionally high hydration of MLD capsid II causes the density of MLD capsid II to be extremely low, typically between 1.08 and 1.12 g/ml, decreasing with increasing centrifugation speed, i.e., with increasing pressure (unpublished observations of the laboratories of Borries Demeler and Philip Serwer).
As the temperature decreases, the loading rate is expected to decrease, eventually to zero at a critical temperature. The critical temperature is expected to decrease as the molecular weight of the compound loaded decreases. The borderline for loading MLD capsid II at 25° C. is somewhat higher than 612, based on the fact that iothalamate anion (mw =612) loads, but very slowly (>19 hours), as determined by the buoyant density after incubation with sodium iothalamate. […]

MLD capsid II [3] = biological target: T2, MLD capsid II; experiment: AUC-BD in a Nycodenz density gradient after pre-centrifugation incubation; assay type: physicochemical
Procedure: By use of recent technical advances, both densities and their pressure dependence have been explored by use of analytical buoyant density equilibrium sedimentation (AUC-BD) performed with a Nycodenz density gradient and a fluorescence detector. The data were analyzed with the UltraScan-III software (Demeler et al., (2012) UltraScan-III, a comprehensive analysis software for analytical ultracentrifugation experiments. The University of Texas Health Science Center at San Antonio, Dept. of Biochemistry). […] The sources of the peak sharpness are small diffusion coefficient and uniform density of phage and phage capsids. […] Fluorescence detection provides picomolar sensitivity and several orders of magnitude of dynamic range. AUC-BD is also efficient in that (1) no gradient fractionation and analysis of separate fractions is needed, (2) sample concentrations in the picomolar range are used, over 2 orders of magnitude less than what is needed for other procedures of detection, (3) 14 samples can be simultaneously run and (4) pressure and temperature dependences are determined with one set of samples by progressively changing the speed and temperature of centrifugation.
The details of the AUC-BD are the following. […] If the particle is uniform in density and its diffusion is low, then a sharp peak of fluorescence will form. […]

O=S(=O)(O)c1cccc2c(-c3ccc(Nc4ccccc4)c4c(S(=O)(=O)O)cccc34)ccc(Nc3ccccc3)c12 [bis-ANS, 4,4′-dianilino-1,1′-binaphthyl-5,5′-disulfonic acid]
bis-ANS binding kinetics (MHD capsid II): Only rapid (effectively instantaneous) binding
diffusion into the internal cavity of MLD capsid II (MLD capsid II [1]): diffuse into the internal cavity of MLD capsid II (over hours)
time of bis-ANS binding to the interior (loading) (T7 MLD capsid II): several hours

CNC(=O)c1c(I)c(NC(C)=O)c(I)c(C(=O)O)c1I [iothalamate]
loading time (MLD capsid II [2]): > 19 h

CC(=O)N(CC(O)CO)c1c(I)c(C(=O)NCC(O)CO)c(I)c(C(=O)NCC(O)CO)c1I (centres unmarked) [Nycodenz]
entry into MLD capsid II (MLD capsid II [3]; pre-centrifugation incubation at 61° C. and 68° C., conversion to high-density particle, shell intact): does enter
entry into MLD capsid II (MLD capsid II [3]; pre-centrifugation incubation at temperatures as high as 54° C.): does not enter MLD capsid II

CC(=O)Nc1c(I)c(C(=O)N[C@H]2C(O)O[C@H](CO)[C@@H](O)[C@@H]2O)c(I)c(N(C)C(C)=O)c1I (some centres unmarked) [Metrizamide]
diffusion into the internal cavity of MLD capsid II (MLD capsid II [1]): never been observed to detectably diffuse into MLD capsid II

CC[n+]1c(-c2ccccc2)c2cc(N)ccc2c2ccc(N)cc21 [ethidium]
diffusion into the internal cavity of MLD capsid II (MLD capsid II [1]): diffuse into the internal cavity of MLD capsid II (over hours)
